Earlier results in article PMC3910343 (Nephrology Dialysis Transplantation, 2013).

Settings: oral cinacalcet

C[C@@H](NCCCc1cccc(C(F)(F)F)c1)c1cccc2ccccc12 [cinacalcet]
initial half-life: ~6 h | time to steady state: ≤ 7 days
